Measured values as given in patent publication US9630965B2, “Fused amino pyridine as HSP90 inhibitors” (Curis, Inc., priority 2007, dated 2017).

Columns and labels:
HSP90 [1] = biological target: T1, HSP90 (Homo sapiens (Human), UniProt P07900); test: HSP90 competition binding (fluorescence polarization) assay with FITC labeled GM; details: 24 hours of incubation at 4° C.
Excerpt: (b) HSP90 Competition Binding (Fluorescence Polarization) Assay.
A fluorescein isothiocyanate (FITC) labeled GM was purchase from InvivoGen (ant-fgl-1). The interaction between HSP90 and labeled GM forms the basis for the fluorescence polarization assay. A free and fast-tumbling FITC labeled GM emits random light with respect to the plane of polarization plane of excited light, resulting in a lower polarization degree (mP) value. When GM is bound to HSP90, the complex tumble slower and the emitted light is polarized, resulting in a higher mP value. […] The assay buffer contained 20 mM HEPES (pH 7.3), 50 mM KCl, 1 mM DTT, 50 mM MgCl2, 20 mM Na2MoO4, 0.01% NP40 with 0.1 mg/ml bovine gamma-globulin.

HSP90 [2] = biological target: T1, HSP90; test: Hsp90 chaperone assay (refolding of heat-denatured luciferase); type: biochemical
Experimental: (a) An In Vitro Assay which Determines the Ability of a Test Compound to Inhibit Hsp90 Chaperone Activity.
The Hsp90 chaperone assay was performed to measure the ability of HSP90 protein to refold the heat-denatured luciferase protein. HSP90 was first incubated with different concentrations of test compounds in denaturation buffer (25 mM Tris, pH7.5, 8 mM MgSO4, 0.01% bovine gamma globulin and 10% glycerol) at room temperature for 30 min. Luciferase protein was added to denaturation mix and incubated at 50° C. for 8 min. The final concentration of HSP90 and luciferase in denaturation mixture were 0.375 μM and 0.125 μM respectively. A 5 μl sample of the denatured mix was diluted into 25 μl of renaturation buffer (25 mM Tris, pH7.5, 8 mM MgSO4, 0.01% bovine gamma globulin and 10% glycerol, 0.5 mM ATP, 2 mM DTT, 5 mM KCl, 0.3 μM HSP70 and 0.15 μM HSP40). The renaturation reaction was incubated at room temperature for 150 min, followed by dilution of 10 μl of the renatured sample into 90 μl of luciferin reagent (Luclite, PerkinElmer Life Science). The mixture was incubated at dark for 5 min before reading the luminescence signal on a TopCount plate reader (PerkinElmer Life Science).

IC50 (HSP90 [1]) [µM]	IC50 (HSP90 [2]) [µM]	Structure (SMILES)
1 to 10	1 to 10	C#CCCCn1c(Sc2cc(OC)ccc2Br)nc2c(N)nccc21 [Compound 13, 2-(2-bromo-5-methoxyphenylthio)-1-(pent-4-ynyl)-1H-imidazo[4,5-c]pyridin-4-amine]
1 to 10	1 to 10	C#CCCCn1c(Sc2cc(OC)ccc2Cl)nc2c(N)nccc21 [Compound 14, 2-(2-chloro-5-methoxyphenylthio)-1-(pent-4-ynyl)-1H-imidazo[4,5-c]pyridin-4-amine]
> 10	≥ 10	C#CCCCn1c(Sc2cc(OC)ccc2[N+](=O)[O-])nc2c(N)nccc21 [Compound 17, 2-(5-methoxy-2-nitrophenylthio)-1-(pent-4-ynyl)-1H-imidazo[4,5-c]pyridin-4-amine]
1 to 10	1 to 10	C#CCCCn1c(Sc2cc(OC)ccc2C(C)=O)nc2c(N)nccc21 [Compound 19, 1-(2-(4-amino-1-(pent-4-ynyl)-1H-imidazo[4,5-c]pyridin-2-ylthio)-4-methoxyphenyl)ethanone]
